What all share (assay): NCI anticancer screen, dose series, 48 h
Test [1] deals with SR.
Test [2] deals with MDA-MB-231.
Test [3] has as its system MCF7.
Test [4] deals with 786-0.
The test system of test [5] is UACC-257.
Test [6] has as its system M14.
In test [7] the test system is MOLT-4.
The subject of test [8] is SN12C.
In test [9] the test system is CCRF-CEM.
Test [10] concerns OVCAR-3.
Test [11] concerns MDA-MB-435.
The test system of test [12] is KM12.
Test [13] deals with HCT-116.
Test [14] has as its system SK-OV-3.
The test system of test [15] is NCI-H226.
Test [16] deals with SF-295.
Test [17] deals with ACHN.
For test [18], the system named is SK-MEL-5.
The subject of test [19] is CAKI-1.
The subject of test [20] is SK-MEL-2.

SMILES strings stand for the structures.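 Cells were grown in 96-well plates and exposed to each compound for 48 hours at five concentrations; endpoints were interpolated linearly between bracketing concentrations, or set to the highest concentration if not reached. GI50 is the concentration that inhibits growth by half.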 Calls of active or inactive are those of the source. No stated cut-off is given here; in the data, active = GI50 up to about 1.1 µM and inactive = higher.

We go through 8 compounds from ChEMBL document CHEMBL1201862, “PubChem BioAssay data set” (2004).

Turning to `CC1=C(C(=O)OCCc2ccc([N+](=O)[O-])cc2)C(c2ccccc2[N+](=O)[O-])C(C(=O)OC(C)C)=C(C)N1` (stereo not given), the GI50 in test [1] is 2.94 µM (inactive); in [2], 4.91 µM (inactive); in test [3], 3.78 µM (inactive); in test [4], 3.08 µM (inactive); in [5] it was 4.04 µM (inactive); in test [6], 4.05 µM (inactive). Also, the GI50 in [7] was 1.99 µM (inactive); in test [8], 6.87 µM (inactive); in [9], 2.36 µM (inactive); in [10], 5.08 µM (inactive); in [11] it was 5 µM (inactive); in test [12] it was 3.48 µM (inactive). The GI50 is 2.75 µM (inactive) in test [13]; 5.81 µM (inactive) in [14]; 5.45 µM (inactive) in test [15]; 2.74 µM (inactive) in test [16]; 3.4 µM (inactive) in test [17]; 2.24 µM (inactive) in test [18]. Further, the GI50 in test [19] is 3.4 µM (inactive); in test [20], 3.86 µM (inactive).

With `c1ccc(/C(=N/Nc2ccncn2)c2ccccn2)cc1`, the GI50 in [1] was 10.5 µM (inactive); in test [2], 32.2 µM (inactive); in test [3], 8.51 µM (inactive); in test [4], 17.8 µM (inactive); in test [5], 20.9 µM (inactive); in [6], 10.3 µM (inactive). Also, the GI50 in test [7] was 3.47 µM (inactive); in test [8], 35 µM (inactive); in test [9], 1.65 µM (inactive); in test [10], 6.78 µM (inactive); in test [11], 48.6 µM (inactive); in test [12], 22 µM (inactive). The GI50 is 14.3 µM (inactive) in test [13]; 23.7 µM (inactive) in test [14]; 15.8 µM (inactive) in test [15]; 23.1 µM (inactive) in test [16]; 5.82 µM (inactive) in test [17]; 15.4 µM (inactive) in test [18]. The GI50 in test [19] is 15.5 µM (inactive); in test [20], 44.8 µM (inactive).

For `CCOC(=O)C1=C(C)NC(C)=C(C(=O)OCCNC(=O)c2ccc(N=[N+]=[N-])cc2)C1c1ccccc1C(F)(F)F` (stereo not given) [AZIDOPINE], the GI50 in test [1] is 4.44 µM (inactive); in [2] it was 14 µM (inactive); in test [3] it was 6.43 µM (inactive); in [4], 13.3 µM (inactive); in test [5], 11.5 µM (inactive); in test [6] it was 9.98 µM (inactive). The GI50 in test [7] was 4.09 µM (inactive); in test [8], 15.1 µM (inactive); in test [9] it was 6.55 µM (inactive); in test [10], 9.06 µM (inactive); in test [11] it was 9.27 µM (inactive); in test [12] it was 7.85 µM (inactive). Also, the GI50 in test [13] is 9.73 µM (inactive); in [14], 13.3 µM (inactive); in test [15], 15 µM (inactive); in [16], 8.61 µM (inactive); in test [17], 7.64 µM (inactive); in test [18], 7.85 µM (inactive). Besides, the GI50 was 12.4 µM (inactive) in [19] and 6.53 µM (inactive) in [20].

As for `O=C1/C(=C\c2ccccc2)C(NC2CCCCC2)c2ccccc21` (stereo not given), the GI50 in [1] is 0.206 µM (active); in [2] it was 2.23 µM (inactive); in test [3] it was 1.37 µM (inactive); in test [4], 0.828 µM (active); in test [5], 1.29 µM (inactive); in test [6], 1.54 µM (inactive). Further, the GI50 in [7] was 0.817 µM (active); in test [8], 1.55 µM (inactive); in test [9], 0.124 µM (active); in [10], 1.24 µM (inactive); in test [11], 1.52 µM (inactive); in [12], 4.44 µM (inactive). The GI50 in test [13] is 0.959 µM (active); in test [14], 14 µM (inactive); in test [15], 6.24 µM (inactive); in [16], 18.8 µM (inactive); in test [17] it was 0.923 µM (active); in test [18], 2.37 µM (inactive). Moreover, the GI50 in [19] was 1.48 µM (inactive); in test [20], 2.24 µM (inactive).

`CCOC(=O)C(NC(=O)CC(C)C)(N1CCN(c2cc3c(cc2F)c(=O)c(C(=O)O)cn3C2CC2)CC1)C(F)(F)F` (stereo not given): the GI50 in test [1] is 11.6 µM (inactive); in [2], 22 µM (inactive); in [3], 15.6 µM (inactive); in [4], 29.5 µM (inactive); in test [5], 16.7 µM (inactive); in test [6] it was 20 µM (inactive). In addition, the GI50 in [7] is 5.71 µM (inactive); in test [8] it was 27.5 µM (inactive); in test [9], 3.32 µM (inactive); in test [10], 14.7 µM (inactive); in test [11], 21.9 µM (inactive); in test [12] it was 13.6 µM (inactive). Further, the GI50 in [13] was 20.4 µM (inactive); in test [14], 24 µM (inactive); in test [15] it was 20.7 µM (inactive); in test [16], 21.3 µM (inactive); in test [17], 12.5 µM (inactive); in [18], 12.7 µM (inactive). Also, the GI50 was 24.9 µM (inactive) in test [19] and 20 µM (inactive) in test [20].

In the case of `CC(C)Oc1cccc(N2C(CCc3c[nH]c4ccc(Br)cc34)=NS(=O)(=O)c3cnccc32)c1`, the GI50 was 35.3 µM (inactive) in test [1]; > 100 µM (inactive) in test [2]; 21.5 µM (inactive) in test [3]; 45 µM (inactive) in test [4]; 50.8 µM (inactive) in test [5]; 32.5 µM (inactive) in test [6]. Moreover, the GI50 in test [7] was 14.8 µM (inactive); in test [8], 69 µM (inactive); in [9], 95.5 µM (inactive); in test [10], 51.3 µM (inactive); in test [11], 46.2 µM (inactive); in test [12], 49.7 µM (inactive). For the same compound, the GI50 was 20.3 µM (inactive) in test [13]; 36.8 µM (inactive) in [14]; 37.3 µM (inactive) in test [15]; 25.7 µM (inactive) in [16]; 28.7 µM (inactive) in test [17]; 35 µM (inactive) in test [18]. Further, the figures for the GI50 in test [19] and in test [20] were 22.7 µM (inactive) and 53.2 µM (inactive), respectively.

On to `COC(=O)c1c(O)ccc2c1c1c(n2CCc2ccccc2)C(=O)c2ccccc2C1=O`, for which the GI50 in [1] is 5.28 µM (inactive); in [2], 14.6 µM (inactive); in [3] it was 9.02 µM (inactive); in [4] it was 16.7 µM (inactive); in [5], 17.7 µM (inactive); in test [6], 15.4 µM (inactive). Besides, the GI50 is 4.06 µM (inactive) in test [7]; 12 µM (inactive) in [8]; 12.8 µM (inactive) in test [9]; 6.7 µM (inactive) in test [10]; 7.03 µM (inactive) in test [11]; 12.2 µM (inactive) in test [12]. Further, the GI50 was 10.9 µM (inactive) in test [13]; 18.3 µM (inactive) in [14]; 14.6 µM (inactive) in [15]; 19.1 µM (inactive) in test [16]; 11.9 µM (inactive) in test [17]; 12.5 µM (inactive) in [18]. Also, the values for the GI50 in [19] and in [20] were 13.1 µM (inactive) and 15.1 µM (inactive), respectively.

`CC1(C)C(=O)N=C(N)N1C(=O)OCc1ccccc1`: the GI50 in [1], in test [2], in [3], in test [4], in [5] and in test [6] was > 100 µM (inactive) throughout. For the same compound, the GI50 in test [7], in [8], in [9], in test [10], in test [11] and in test [12] was > 100 µM (inactive) each time. Also, the GI50 in test [13], in [14], in [15], in test [16], in [17] and in test [18] was > 100 µM (inactive) in each case. Also, the GI50 in [19] and in test [20] was > 100 µM (inactive) in each case.
